Assay results taken from PMC7822874, “Chemoprotective antimalarials identified through quantitative high-throughput screening of Plasmodium blood and liver stage parasites” (Scientific Reports, 2021).

Test system: Plasmodium falciparum Dd2 asexual blood stage parasites
Assay: microbe, parasite or virus in culture
Set-up: species or system Plasmodium falciparum Dd2 in human erythrocytes; single determination (one 11-point concentration-response curve)
Conditions: Plasmodium falciparum, DD2, Erythrocyte, 72 h; read-out: AC50

CC(=O)Nc1nc2ccccc2n1Cc1ccc(Cl)cc1 [MLS000779302-01]
AC50: 8.41 µM

Cc1ncsc1CN1CCCN(Cc2ccncc2)C(c2ccccc2)CC(=O)NCC1 (stereo not shown) [NCGC00467186-01]
AC50: 8.41 µM

CC(C)(C)OC(=O)N1CCC(c2c(C(=O)NCCN3CCc4ccccc4C3)cnn2-c2ccc(F)cc2F)CC1 [NCGC00127087-01]
AC50: 5.31 µM

COc1ccc(NC(=O)c2c(C)oc3ccc(O)c(CN4CCCCCC4)c23)cc1Cl [NCGC00115677-01]
AC50: 1.88 µM

COc1cccc(-c2nn3c(=O)cc(CN4CCN([S+](=O)([O-])c5ccc(C)cc5)CC4)nc3s2)c1 [NCGC00134088-01]
AC50: 8.41 µM

CCOC(=O)c1ccccc1NC1c2ccccc2C(=O)N1C1CCN(C(=O)OCC)CC1 (stereo not shown) [MLS000878310-01]
AC50: 13.3 µM

CN1Cc2ccc(Nc3ccccc3)nc2C(C)(C(=O)NCc2ccc3c(c2)OCO3)C1 (stereo not shown) [NCGC00414588-01]
AC50: 13.7 µM

COC(=O)[C@@H]1Cc2ncn(Cc3ccc(OC)cc3)c2CN1[S+](C)(=O)[O-] [NCGC00401682-01]
AC50: 19.3 µM

Cc1cc(Nc2ccc(C(C)C)cc2)n2ncnc2n1 [MLS000116597-01]
AC50: 4.22 µM

CC(=O)Nc1cccc(-c2cc(C(=O)NCc3c(C)cc(C)[nH]c3=O)c3c(c2)N(C(C)C)CCO3)c1 [NCGC00417042-01]
AC50: 9.44 µM

CN1CCN(c2nc(Nc3ccc(O)cc3)nc3ccccc23)CC1 [MLS000716977-01]
AC50: 4.22 µM

CCN(CC(O)c1cccc(O)c1)C(=O)C12CC3CC(CC(C3)C1)C2 (stereo not shown) [MLS001166662-01]
AC50: 4.73 µM

Cc1ccc(OCc2nc(C3CCN(C(=O)c4c5c(nc6ccccc46)CCCC5)CC3)no2)cc1 [NCGC00459905-01]
AC50: 9.44 µM

CCOC(=O)c1c([S+](=O)([O-])N2CCCC(C(=O)N3CCN(c4cc(C)ccc4C)CC3)C2)c(C)n(C)c1C (stereo not shown) [NCGC00138145-01]
AC50: 1.5 µM

O=C(Nc1ccccc1)[C@H]1O[C@H](CCN2CCN(c3ccc(F)cc3)CC2)CC[C@@H]1O [NCGC00391966-01]
AC50: 10.9 µM

COCCN1C(=O)c2ccccc2C(C(=O)Nc2nc3ccccc3[nH]2)C12CCCCC2 (stereo not shown) [NCGC00423176-01]
AC50: 4.73 µM

CCN1CCN(Cc2ccc(NC(=O)c3cc(NC(=O)C4=NN(c5ccccc5)C(=O)C4)cc(OC)c3)cc2C(F)(F)F)CC1 [MLS000911574-01]
AC50: 8.41 µM

CC(C)OCCCNc1sc([S+](=O)([O-])c2ccccc2)nc1[S+](=O)([O-])c1ccc(Cl)cc1 [NCGC00116822-01]
AC50: 0.266 µM

Cc1cccc(CNCc2ccccc2OCC(O)CN2CCSCC2)c1 (stereo not shown) [NCGC00428382-01]
AC50: 1.5 µM

Cc1c(CN2CC(Oc3ccccc3C(=O)NCc3ccccc3)C2)cnn1C [NCGC00458092-01]
AC50: 4.22 µM

COc1cc(C2NCc3ccccc3-n3cccc32)ccc1O (stereo not shown) [MLS000047988-01]
AC50: 2.66 µM

CC(=O)Nc1cc(-c2cc(C(=O)NCCc3c[nH]cn3)c3c(c2)N(C)CCO3)ccn1 [NCGC00417032-01]
AC50: 13.7 µM

CCOC(=O)c1c(CN(C)C)oc2cc(CN(C)C)c(O)c(CSc3ccccc3)c12 [MLS000038262-01]
AC50: 0.596 µM

Cc1cccc(C(=O)N2CCc3cc(CNC(=O)c4ccc(Br)o4)ccc32)c1 [NCGC00137781-01]
AC50: 9.44 µM

O=C1CC(c2ccccc2)N(Cc2ccncc2)CCCN([S+](=O)([O-])c2cccc(F)c2)CCN1 (stereo not shown) [NCGC00467202-01]
AC50: 4.73 µM

CCOc1ccc(CCNC(=O)Nc2ccccc2)cc1OCC [MLS001197603-01]
AC50: 5.31 µM

CCOc1cc(C(=O)N2CCc3c([nH]c4ccccc34)C2c2ccccc2)cc(OCC)c1OCC (stereo not shown) [NCGC00134525-01]
AC50: 7.5 µM

Cc1cccc(Oc2nc(-c3ccncc3)nc3ccccc23)c1 [MLS000769517-01]
AC50: 7.5 µM

Cc1noc(C)c1-c1cc2cc(CN(C)C)oc2c(Nc2cccnc2)n1 [NCGC00417472-01]
AC50: 12.2 µM

C#CCNC(=O)C[C@@H]1c2nc(NC(=O)OCC=C)sc2C[C@@H]2[C@](C)(CO)[C@H](O)CC[C@]21C [NCGC00391491-01]
AC50: 15 µM

COc1ccc(-c2cnc3[nH]cc(CC(=O)NCc4cccnc4)c3c2)cc1OC [NCGC00412448-01]
AC50: 1.53 µM

CC(NC(=O)Cn1c(-c2cccs2)cc2cc(F)ccc21)c1ccccc1 (stereo not shown) [NCGC00123911-01]
AC50: 2.66 µM

CCCCN(CC)CCNC(S)=Nc1ccc2nc(N3CCN(C)CC3)cc(C)c2c1 [MLS001197626-01]
AC50: 5.96 µM

O=C(c1ccc2c(c1)OCO2)N1CCC2(CC1)COc1ccccc1CN2 [NCGC00477555-01]
AC50: 5.31 µM

Cc1ccc(CN2CCOC[C@H]2c2nc(C(C)(C)C)c[nH]2)cc1 [NCGC00393602-01]
AC50: 13.7 µM

CCN(CC)C(=O)c1sc(NC(=O)C(C)Sc2nc(-c3ccccc3)cc(C(F)(F)F)n2)c(C(=O)OC)c1C (stereo not shown) [NCGC00101276-01]
AC50: 0.596 µM

Cc1cc(C)c2oc(=O)cc(CN3CCCCC3)c2c1 [MLS001216359-01]
AC50: 13.3 µM

COc1ccc2cc1Nc1ccc(cc1)C[C@H](NC(=O)c1cc3ccccc3n1C)C(=O)N(C)[C@H](C(=O)NCCC(C)C)C2 [NCGC00410275-01]
AC50: 10.6 µM

Cc1ccc(CN2CC[C@@H]3C(=O)NCCCCCCN(Cc4ccncc4)[C@@H]3C2)o1 [NCGC00467213-01]
AC50: 2.11 µM

CN(C)Cc1cc(C[C@@H]2C[C@H](NCc3ccccc3O)C2(C)C)no1 [NCGC00395458-01]
AC50: 17.2 µM

COc1ccc(N2CCN(c3oc(/C=C/c4cc(OC)c(OC)c(OC)c4)nc3C#N)CC2)cc1 [NCGC00116464-01]
AC50: 2.66 µM

Cc1ccc(NC(=O)c2c(C)oc3ccc(O)c(CN4CCCCCC4)c23)c(C)c1 [NCGC00115658-01]
AC50: 4.73 µM

CC(=O)Oc1ccc2ccccc2c1C(NC(=O)C(C)C)c1cccc([N+](=O)[O-])c1 (stereo not shown) [MLS000526079-01]
AC50: 16.8 µM

COCCN(CCOC)c1nc(N)c2c(N)nc3c(c2c1C#N)CC(=O)N3Cc1ccc(Cl)cc1 [MLS000402239-01]
AC50: 5.96 µM

Cc1noc(C)c1-c1cc2c(cc(C)n2CCN(C)C)c(Nc2ccn(C)n2)n1 [NCGC00417199-01]
AC50: 13.7 µM

O[C@@H]1C[C@@](CNCC2CCCC2)(COc2ccc(C(F)(F)F)cn2)C[C@@H]1O [NCGC00393440-01]
AC50: 5.31 µM

COc1ccc(CNCc2ccc(C)s2)cc1OCC(O)CN1CCCCC1 (stereo not shown) [NCGC00428936-01]
AC50: 9.44 µM

COc1cccc(CC(=O)N2CCCC(CN3CCCC3)CC2)c1 (stereo not shown) [NCGC00456752-01]
AC50: 15 µM

Cc1ccc(NC(=O)c2cnc(-c3ccccc3)nc2-c2ccncc2)c(Br)c1 [NCGC00426434-01]
AC50: 9.44 µM

CN(C)CCN1C(=O)c2oc3ccc(Cl)cc3c(=O)c2C1c1cccc(Br)c1 (stereo not shown) [MLS000862131-01]
AC50: 0.531 µM

FC(F)(F)CN1C2CCC1CN(c1nnc(Cl)c3ccccc13)C2 [NCGC00375660-01]
AC50: 2.11 µM

COc1cc2nc(NCc3ccccc3)n3nc(-c4ccccc4)nc3c2cc1OC [NCGC00112829-01]
AC50: 0.422 µM

Oc1cc(Nc2ccccc2)cc2cccnc12 [NCGC00183789-01]
AC50: 6.68 µM

CC(Oc1ccc(F)cc1)C(=O)Nc1cc(Cl)ccc1-n1cncn1 (stereo not shown) [MLS001157608-01]
AC50: 6.68 µM

O=C(c1cccs1)N1CCCCCC1CN1CCCC1 (stereo not shown) [NCGC00456696-01]
AC50: 10.6 µM

Oc1ccccc1C1=NN(c2ccccc2)C(c2ccccc2)C1 (stereo not shown) [MLS001163829-01]
AC50: 7.5 µM

CCOC(=O)COn1c(-n2nc(C)cc2C)nc2ccccc2c1=O [MLS001215150-01]
AC50: 9.44 µM

CCC(C)NC(=O)c1ccccc1NC(=O)C1COc2ccccc2O1 (stereo not shown) [MLS000708698-01]
AC50: 10.6 µM

SC(=NCc1ccccc1)N1CCn2cccc2C1c1cccnc1 (stereo not shown) [MLS000683224-01]
AC50: 9.44 µM

CCC(C)c1ccc(N(C(=O)c2ccco2)C(C(=O)NC2CCCC2)c2cccnc2)cc1 (stereo not shown) [MLS001222477-01]
AC50: 6.68 µM

CCC(=O)N1CCc2cc(Br)cc(S(=O)(=O)C3(C(=O)OC)CC3)c21 [MLS000047144-01]
AC50: 3.76 µM

COc1ccccc1N1CCN(C(=O)C2CCCN(S(=O)(=O)c3ccc4c(c3)oc(=O)n4C)C2)CC1 (stereo not shown) [NCGC00140732-01]
AC50: 5.96 µM

CO/N=C1\CN(c2nc3c(cc2F)c(=O)c(C(=O)O)cn3C2CC2)CC1CN (stereo not shown) [NCGC00095182-01]
AC50: 9.44 µM

CCN(CC)S(=O)(=O)c1ccc(N2CCCCC2)c(NC(=O)C2=COCCO2)c1 [MLS001150729-01]
AC50: 6.68 µM

O=C1CC(c2ccccc2)N(C(=O)CNC(=O)c2ccc3[nH]ccc3c2)CCCCCN1 (stereo not shown) [NCGC00465493-01]
AC50: 15 µM

CCCN(CCC)CC(O)Cn1cc(/C=C/C(=O)c2ccc(C)cc2)c2ccccc21 (stereo not shown) [NCGC00114909-01]
AC50: 4.73 µM

CCc1cccc2c(C(CC(=O)N3CCC(C)CC3)c3cccc(C)c3)c[nH]c12 (stereo not shown) [NCGC00473418-01]
AC50: 4.73 µM

CCN(Cc1ccccc1)Cc1c(O)ccc2oc(C)c(C(=O)Nc3ccccc3C)c12 [NCGC00115715-01]
AC50: 4.73 µM

Fc1cccc(CC2CCOC3(CCNCC3)C2)c1 (stereo not shown) [NCGC00470522-01]
AC50: 13.3 µM

Cc1ccc([S+](=O)([O-])N2CCC3(CCN(Cc4cccs4)c4ccccc4O3)CC2)cc1 [NCGC00478057-01]
AC50: 18.8 µM

COC(=O)[C@H](Cc1ccc(OC)cc1)NC(=O)[C@H]1CN(C(=O)c2ccc(N(C)C)cc2)CCN1C(=O)C1CCCCC1 [NCGC00398660-01]
AC50: 0.668 µM

CC1=C[C@@H](CNC(=O)COc2ccccc2)[C@H](C(C)C)C[C@H]1Cc1nnc(-c2cncn2C)o1 [NCGC00394594-01]
AC50: 13.3 µM

Cc1cc(Nc2ccc(C)c(F)c2)n2ncnc2n1 [MLS000033310-01]
AC50: 9.44 µM

O=C(Nc1ccsc1C(=O)NC1CCCCC1)c1ccc(F)cc1 [MLS000546987-01]
AC50: 6.68 µM

CCCCn1cc([S+](=O)([O-])c2ccc(Cl)cc2)c(=O)c2cc(F)c(N3CCCCC3)cc21 [NCGC00123723-01]
AC50: 15 µM

Cc1cc(C)c(CNC(=O)c2cc(-c3ccnn3C)cc3c2OCCN3C(C)C)c(=O)[nH]1 [NCGC00417130-01]
AC50: 15.3 µM

O=C(Nc1ccc(F)cc1F)N1CCOc2ccc(CN3CCc4ccccc4C3)cc2C1 [NCGC00471236-01]
AC50: 16.8 µM

CCCn1c(=N)c(C(=O)NCc2ccc3c(c2)OCO3)cc2c(=O)n3cccc(C)c3nc21 [MLS001305712-01]
AC50: 10.6 µM

CN(C)CCNC(=O)c1ccc2c(c1)N(Cc1c(F)cccc1Cl)C(=O)c1ccccc1S2 [NCGC00108148-01]
AC50: 2.11 µM
